Results reported in ChEMBL document CHEMBL1201862, “PubChem BioAssay data set” (2004).
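Step 1: Grow cells in 96-well plates. Step 2: Expose to compound for 48 hours at 5 concentrations. Step 3: Interpolate endpoints linearly; if unreached, use highest concentration. The concentration for 50% growth inhibition is given as GI50.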 Activity calls are given as the source filed them. Rule as the data show it: active = GI50 up to about 1.1 µM and inactive = higher.

Experiments:
Assay in all cases: inhibition of tumour cell growth, NCI panel, 48 h
UACC-257 = test system: UACC-257
OVCAR-8 = test system: OVCAR-8
OVCAR-4 = test system: OVCAR-4
TK-10 = test system: TK-10
HCT-116 = test system: HCT-116
HT-29 = test system: HT-29
SNB-78 = test system: SNB-78
XF498 = test system: XF498
SW-620 = test system: SW-620
SK-MEL-5 = test system: SK-MEL-5
SK-MEL-28 = test system: SK-MEL-28
EKVX = test system: EKVX
SNB-75 = test system: SNB-75
RPMI-8226 = test system: RPMI-8226
KM-20L2 = test system: KM-20L2
HL-60 = test system: HL-60
HOP-92 = test system: HOP-92
SK-MEL-2 = test system: SK-MEL-2
HCC 2998 = test system: HCC 2998
UACC-62 = test system: UACC-62
ACHN = test system: ACHN
RXF 393 = test system: RXF 393
DMS-114 = test system: DMS-114
UO-31 = test system: UO-31
LXFL 529 = test system: LXFL 529
RXF 631 = test system: RXF 631
HOP-18 = test system: HOP-18
NCI-H460 = test system: NCI-H460
A549 = test system: A549
Malme-3M = test system: Malme-3M
SF-295 = test system: SF-295
NCI-H226 = test system: NCI-H226
HOP-62 = test system: HOP-62
COLO 205 = test system: COLO 205
DLD-1 = test system: DLD-1
DMS-273 = test system: DMS-273
OVCAR-5 = test system: OVCAR-5
IGROV-1 = test system: IGROV-1
M19-MEL = test system: M19-MEL
HCT-15 = test system: HCT-15
SK-OV-3 = test system: SK-OV-3
KM12 = test system: KM12
OVCAR-3 = test system: OVCAR-3
786-0 = test system: 786-0
MOLT-4 = test system: MOLT-4
K562 = test system: K562
LOX IMVI = test system: LOX IMVI
U-251 = test system: U-251
CCRF-CEM = test system: CCRF-CEM
M14 = test system: M14
SN12C = test system: SN12C
CAKI-1 = test system: CAKI-1
SNB-19 = test system: SNB-19
A498 = test system: A498
SF-268 = test system: SF-268
NCI-H23 = test system: NCI-H23

Structure (SMILES): COC/C=C\COC
- GI50 (UACC-257): > 100 µM (inactive)
- GI50 (OVCAR-8): > 100 µM (inactive)
- GI50 (OVCAR-4): > 100 µM (inactive)
- GI50 (TK-10): > 100 µM (inactive)
- GI50 (HCT-116): > 100 µM (inactive)
- GI50 (HT-29): > 100 µM (inactive)
- GI50 (SNB-78): > 100 µM (inactive)
- GI50 (XF498): > 100 µM (inactive)
- GI50 (SW-620): > 100 µM (inactive)
- GI50 (SK-MEL-5): > 100 µM (inactive)
- GI50 (SK-MEL-28): > 100 µM (inactive)
- GI50 (EKVX): > 100 µM (inactive)
- GI50 (SNB-75): > 100 µM (inactive)
- GI50 (RPMI-8226): > 100 µM (inactive)
- GI50 (KM-20L2): > 100 µM (inactive)
- GI50 (HL-60): > 100 µM (inactive)
- GI50 (HOP-92): > 100 µM (inactive)
- GI50 (SK-MEL-2): > 100 µM (inactive)
- GI50 (HCC 2998): > 100 µM (inactive)
- GI50 (UACC-62): > 100 µM (inactive)
- GI50 (ACHN): > 100 µM (inactive)
- GI50 (RXF 393): > 100 µM (inactive)
- GI50 (DMS-114): > 100 µM (inactive)
- GI50 (UO-31): > 100 µM (inactive)
- GI50 (LXFL 529): > 100 µM (inactive)
- GI50 (RXF 631): > 100 µM (inactive)
- GI50 (HOP-18): > 100 µM (inactive)
- GI50 (NCI-H460): > 100 µM (inactive)
- GI50 (A549): > 100 µM (inactive)
- GI50 (Malme-3M): > 100 µM (inactive)
- GI50 (SF-295): > 100 µM (inactive)
- GI50 (NCI-H226): > 100 µM (inactive)
- GI50 (HOP-62): > 100 µM (inactive)
- GI50 (COLO 205): > 100 µM (inactive)
- GI50 (DLD-1): > 100 µM (inactive)
- GI50 (DMS-273): > 100 µM (inactive)
- GI50 (OVCAR-5): > 100 µM (inactive)
- GI50 (IGROV-1): > 100 µM (inactive)
- GI50 (M19-MEL): > 100 µM (inactive)
- GI50 (HCT-15): > 100 µM
- GI50 (SK-OV-3): > 100 µM (inactive)
- GI50 (KM12): > 100 µM (inactive)
- GI50 (OVCAR-3): > 100 µM (inactive)
- GI50 (786-0): > 100 µM (inactive)
- GI50 (MOLT-4): > 100 µM (inactive)
- GI50 (K562): > 100 µM (inactive)
- GI50 (LOX IMVI): > 100 µM (inactive)
- GI50 (U-251): > 100 µM (inactive)
- GI50 (CCRF-CEM): > 100 µM (inactive)
- GI50 (M14): > 100 µM (inactive)
- GI50 (SN12C): > 100 µM (inactive)
- GI50 (CAKI-1): > 100 µM (inactive)
- GI50 (SNB-19): > 100 µM (inactive)

Structure (SMILES): COc1cc2c(cc1OC)C(CC1=C(c3ccccc3)CN3CCc4cc(OC)c(OC)cc4C3C1)NCC2 (stereo unspecified)
- GI50 (UACC-257): 16.2 µM (inactive)
- GI50 (OVCAR-8): 19.3 µM (inactive)
- GI50 (OVCAR-4): 14 µM (inactive)
- GI50 (TK-10): 16.6 µM (inactive)
- GI50 (A498): 16.7 µM (inactive)
- GI50 (SF-268): 15 µM (inactive)
- GI50 (HT-29): 10.4 µM (inactive)
- GI50 (SNB-78): 15.6 µM (inactive)
- GI50 (XF498): 11.7 µM (inactive)
- GI50 (SW-620): 17.7 µM (inactive)
- GI50 (SK-MEL-5): 12.4 µM (inactive)
- GI50 (SK-MEL-28): 14.5 µM (inactive)
- GI50 (EKVX): 21.8 µM (inactive)
- GI50 (SNB-75): 12.5 µM (inactive)
- GI50 (RPMI-8226): 9.84 µM (inactive)
- GI50 (KM-20L2): 13.4 µM (inactive)
- GI50 (HL-60): 12.2 µM (inactive)
- GI50 (SK-MEL-2): 20.5 µM (inactive)
- GI50 (HCC 2998): 10.6 µM (inactive)
- GI50 (UACC-62): 20.4 µM (inactive)
- GI50 (ACHN): 24.3 µM (inactive)
- GI50 (RXF 393): 2.66 µM (inactive)
- GI50 (DMS-114): 14.3 µM (inactive)
- GI50 (UO-31): 11.1 µM (inactive)
- GI50 (NCI-H23): 23.1 µM (inactive)
- GI50 (LXFL 529): 16.6 µM (inactive)
- GI50 (RXF 631): 14.8 µM (inactive)
- GI50 (HOP-18): 14.6 µM (inactive)
- GI50 (NCI-H460): 18.8 µM (inactive)
- GI50 (A549): 17 µM (inactive)
- GI50 (Malme-3M): 19.5 µM (inactive)
- GI50 (SF-295): 16.8 µM (inactive)
- GI50 (NCI-H226): 18.9 µM (inactive)
- GI50 (COLO 205): 15.2 µM (inactive)
- GI50 (DLD-1): 19.1 µM (inactive)
- GI50 (DMS-273): 15.7 µM (inactive)
- GI50 (OVCAR-5): 18.5 µM (inactive)
- GI50 (IGROV-1): 16.6 µM (inactive)
- GI50 (M19-MEL): 17 µM (inactive)
- GI50 (HCT-15): 17.7 µM
- GI50 (SK-OV-3): 28 µM (inactive)
- GI50 (KM12): 17.2 µM (inactive)
- GI50 (OVCAR-3): 17.3 µM (inactive)
- GI50 (786-0): 15.7 µM (inactive)
- GI50 (MOLT-4): 9.91 µM (inactive)
- GI50 (K562): 12.2 µM (inactive)
- GI50 (LOX IMVI): 15.8 µM (inactive)
- GI50 (U-251): 15.2 µM (inactive)
- GI50 (CCRF-CEM): 14.6 µM (inactive)
- GI50 (M14): 21.3 µM (inactive)
- GI50 (SN12C): 17.9 µM (inactive)
- GI50 (CAKI-1): 25.7 µM (inactive)
- GI50 (SNB-19): 19.6 µM (inactive)
